These results are taken from US5047402A, “Cyclic amides as medicaments” (ICI Americas Inc., priority 1989, dated 1991).

The target in this assay is T1, LTD4 /E4 receptors (Cavia porcellus, UniProt Q2NNR5).
T1 construct: membrane fractions, containing the LTD4 /E4 receptors, are prepared from guinea-pig lung parenchyma; from tissue; host or cells: guinea-pig lung parenchyma membrane fractions
T1 sequence (Q2NNR5 1-340): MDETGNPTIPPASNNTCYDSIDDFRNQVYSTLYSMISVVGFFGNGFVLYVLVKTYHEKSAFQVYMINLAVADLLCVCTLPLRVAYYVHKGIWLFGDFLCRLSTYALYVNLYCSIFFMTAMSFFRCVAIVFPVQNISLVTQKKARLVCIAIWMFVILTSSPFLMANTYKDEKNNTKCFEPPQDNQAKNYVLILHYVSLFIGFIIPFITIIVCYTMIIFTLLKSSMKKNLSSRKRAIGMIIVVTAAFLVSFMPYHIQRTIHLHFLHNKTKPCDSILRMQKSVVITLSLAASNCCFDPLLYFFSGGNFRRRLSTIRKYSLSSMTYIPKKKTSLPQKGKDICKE
As to the kind of experiment: receptor-ligand binding assay with 3H-LTD4 on guinea-pig lung parenchyma membrane fractions. The following applies: 1nM 3H-LTD4, 30 minutes at 22° C., Ki calculated from IC50 by the Cheng-Prusoff equation. How it is done: According to this procedure, membrane fractions, containing the LTD4 /E4 receptors, are prepared from guinea-pig lung parenchyma and incubated for 30 minutes at 22° C. with 1nM ^3 H-LTD4 in the absence or presence of tested antagonist. Specific binding, determined under conditions that prevent enzymatic metabolism of ^3 H-LTD4, is the net result of total ^3 H-LTD4 binding minus nonspecific binding determined in the presence of 1-2000 fold excess unlabelled LTD^4. Each assay is done in duplicate and results (Ki values) are typically a mean of several such determinations in individual receptor batches.
The % inhibition by a tested antagonist, relative to control binding (vehicle alone), is expressed as a fraction of log[antagonist] concentration (in molar units) and the half-maximal inhibition (IC50) determined by computerized non-linear least-square analysis. The binding constant (Ki) is then calculated from IC50 by the Cheng-Prusoff equation: [formula] where [L] is ^3 H-LTD4 concentraton and Kd is the affinity constant of LTD4 to this receptor, determined separately for each batch. (Biochem. Pharmacol. 22: 3099-3108, 1973).

As a reminder, the Ki is a dissociation constant, usually derived from enzyme kinetics or from competition with a known ligand.

As to `CCCN1CCC(Cc2ccc3c(c2)c(Cc2ccc(C(=O)NS(=O)(=O)c4ccccc4C)cc2OC)cn3CCC)C1=O` (stereo not shown) [Example 1, 3-Methoxy-N-(2-methylphenylsulfonyl)-4-[1-propyl-5-(1-propyl-2-oxopyrrolidin-3-ylmethyl)indol-3-ylmethyl]benzamide], the Ki was 1 nM.
